Measured values taken from patent US12384795B2, “Pyrimido[5,4-b]pyrrolizin compound, optical isomer thereof, preparation method therefor and use thereof” (SHANGHAI INSTITUTE OF MATERIA MEDICA, CHINESE ACADEMY OF …, priority 2019, dated 2025).
Several values for one entry are separate records, joined by “and”; a condition that tells them apart may be missing. Equal entries are not always repeated. Blank lines part the entries; values can stand above or below the compound they belong to.

Legend:
[1] = target: BTK tyrosine kinase protein (Homo sapiens, UniProt Q06187); assay: Inhibitory activity evaluation of Bruton kinase (BTK) at molecular level (ELISA); type: biochemical; details: ATP 5 μM
Experimental: The enzyme reaction substrate Poly (Glu, Tyr)4:1 was diluted with potassium-free PBS (10 mM sodium phosphate buffer, 150 mM NaCl, pH 7.2-7.4) to 20 μg/ml, and coated enzyme plate. After reacting at 37° C. for 12-16 hours, the plate was washed three times with 200 μL/well T-PBS (PBS containing 0.1% Tween-20) and dried in 37° C. oven for 1-2 hours. 49 μL/well ATP solution (final concentration was 5 μM) diluted with a reaction buffer (50 mM HEPES pH 7.4, 50 mM MgCl2, 0.5 mM MnCl2, 0.2 mM Na3VO4, 1 mM DTT) was firstly added into the substrate-coated plate. 1 μL compound to be tested (compound well) or DMSO with corresponding concentration (negative control well) was added into each well, and enzyme-free control well was set up for each experiment. Then 50 μL of BTK tyrosine kinase protein diluted with reaction buffer was added to start the reaction.
The above reaction system was placed in a shaking table (100 rpm) for 1 hour at 37° C., then the plate was washed with T-PBS for three times, and the primary antigen PY99 100 μL/well (Santa Cruz) was added, and the reaction was carried out in a shaking table for 0.5 hours at 37° C. […]

[2] = test system: Human B lymphoma cell Ramos (Burkitt lymphoma); assay: Inhibition of proliferation of Ramos cells in vitro (MTT, 72 h); type: cell-based
Experimental: (§1) Cell suspensions (Ramos: 10000 cells/well; TMD8: 12000 cells/well) were seeded in a 96-well plate, placed in an incubator for 2 hours at 37° C., after the cell state was stabilized, different concentrations of tested compounds were added to each well (each concentration was set with 3 duplicate wells), and blank control (only containing culture solution, but not containing cells), negative control (only adding cells, but not adding compounds) and positive compound control were set at the same time. After 72 h treatment, 20 μL MTT (5 mg/ml) was added to each well and incubated for 4 h at 37° C. 100 μL triple solution (10% SDS, 5% isobutanol, 0.01 M HCl) was added and placed overnight at 37° C. The OD value was measured with microplate enzyme-labeled instrument SPECTRA MAX Plus 384 with adjustable wavelength at 570 nm.
(§2) The inhibition rate of the compound was obtained by the following formula: […]
(§3) The IC50 value was obtained by four-parameter regression using the software attached to the microplate reader.

[3] = test system: Human diffuse large B lymphoma cell TMD8; assay: Inhibition of proliferation of TMD8 cells in vitro (MTT, 72 h); type: cell-based
Experimental: as §1, §2, §3

[4] = test system: human mantle cell lymphoma REC-1 xenograft; assay: Anti-tumor activity in vivo, REC-1 xenograft tumor model; set-up: species or system Mice; details: for T/C (%) / TGI (%): day 15; for Tumor volume (mm^3) (Day 15): day 15, mean ± SEM
Experimental: (§4) • 1) Species: Mice • 2) Strain: CB-17 SCID • 3) Age and body weight: 6-8 weeks; 18-22 g • 4) Sex: Female • 5) Supplier: Beijing Vital River Laboratory Animal Technology Co., Ltd. REC-1 Xenograft Tumor Model • 1) Species: Mice • 2) Strain: BALB/c nude mice • 3) Age and body weight: 6-8 weeks; 17-20 g • 4) Sex: Female • 5) Supplier: Shanghai Lingchang Biotechnology Co., Ltd.
(§5) Conventional treatment was carried out twice a week. When the cell saturation was 80%-90%, the cells were collected, counted and inoculated.
(§6) 0.2 mL 5×10^6 REC-1 cells were subcutaneously inoculated into the right back of each nude mouse (PBS:Matrigel=1:1). When the average tumor volume reached 100 mm^3, group administration began. Each group of 6 mice was grouped according to the tumor volume by random grouping software based on Excel.
(§7) The health status and death status of animals were monitored every day. Routine examinations included observing the effects of tumor growth and drug treatment on daily behaviors of animals, such as behavioral activities, food intake and water intake (visual inspection only), weight change (weight measurement three times a week), appearance signs or other abnormal conditions. Based on the number of animals in each group, the number of animal deaths and side effects in each group were recorded.
(§8) Tumor measurement and experimental indexes: the experimental index was to investigate whether the tumor growth is inhibited, delayed or cured. The tumor diameter was measured with vernier caliper three times a week.
(§9) TGI (%), reflecting the tumor growth inhibition rate.
(§10) Relative tumor proliferation rate T/C (%): the calculation formula is as follows:
(§11) T/C %=TRTV/CRTV×100% (TRTV: Relative tumor volume in treatment group; CRTV: Relative tumor volume in negative control group).
(§12) Statistical analysis: Statistical analysis, including the mean value of tumor volume and standard error (SEM) at each time point in each group. […] Three or more groups were compared with one-way ANOVA. If there were significant differences in F values, Games-Howell method was used to test. All data were analyzed with SPSS 17.0. p<0.05 was considered as significant difference.

[5] = test system: human lymphoma TMD8 xenograft; assay: Anti-tumor activity in vivo, TMD8 xenograft tumor model; set-up: species or system Mice; details: for Tumor volume: 17th day, mean ± SEM
Experimental: as §4, §5
as §6, with “Tumor cell inoculation: 0.2” for “0.2”, “10×10^6 Human lymphoma TMD8” for “5×10^6 REC-1”, “104” for “100”
as §7, §8, §9, §10, §11, §12

in vivo = details: male, Sprague-Dawley (SD), rat
Experimental: Fourteen SD rats, male, weighing 200-220 g, were randomly divided into 4 groups (4/3 rats in each group) and given the tested compounds by intragastric administration and intravenous administration respectively.
0.5% sodium carboxymethyl cellulose (CMC-Na) containing 1% Tween 80 was formulated for intragastric administration, and 5% DMSO/5% Tween 80/90% normal saline was formulated for intravenous administration.
Fasting for 12 hours and drinking water freely before the test. Eat uniformly 2 hours after administration.
At the above set time point, 0.3 ml of venous blood was taken through the posterior venous plexus of the rat eyeball, placed in a heparinized test tube, centrifuged at 11000 rpm for 5 minutes, and the plasma was separated, frozen in the fridge at −20° C.
The concentration of S17016 in rat plasma was determined by LC/MS/MS.

[6] = Metabolic stability test in human liver microsomes; type: in vitro ADME; details: HLM, 0.1 μM drug, 0.33 mg/ml microsomes, NADPH
Experimental: (§13) Liver microsomes were incubated in a 96-well plate, and the volume of each incubated system was 450 μL with a medium of 0.1 M Tris buffer (pH 7.4), including liver microsomes with a final concentration of 0.33 mg/ml, 0.1 μM of tested drugs and 5.0 mM MgCl2, 0.01% DMSO, 0.005% BSA and 1.0 mM NADPH. Incubated at 37° C. for 10 min, NADPH was added to initiate the reaction, and 50 μL was taken out and added with the same volume of methanol to terminate the reaction after 0, 7, 17, 30 and 60 min, respectively.
(§14) S17016 in incubated samples was determined by LC/MS/MS with electrospray ionization (ESI) as the ion source and multi-reaction monitoring (MRM) as the scanning mode.
(§15) The experimental results of metabolic stability in vitro of S17016 in different liver microsomes (HLM: human liver microsomes; RLM: rat liver microsomes; MLM: mouse liver microsomes) were shown in Table 9 and FIG. 3 below.

[7] = Metabolic stability test in rat liver microsomes; type: in vitro ADME; details: RLM, 0.1 μM drug, 0.33 mg/ml microsomes, NADPH
Experimental: as §13, §14, §15

[8] = Metabolic stability test in mouse liver microsomes; type: in vitro ADME; details: MLM, 0.1 μM drug, 0.33 mg/ml microsomes, NADPH
Experimental: as §13, §14, §15

[9] = Oral bioavailability of earlier compound; details: in vivo
[10] = Further study of metabolism of earlier compounds; type: in vitro ADME; details: 4-position of terminal phenyl easy to be oxidized
BTK = BTK (Homo sapiens, UniProt Q06187); details: disclosed in patent CN108101905A; cited from earlier work
Chain of BTK (Q06187 whole entry): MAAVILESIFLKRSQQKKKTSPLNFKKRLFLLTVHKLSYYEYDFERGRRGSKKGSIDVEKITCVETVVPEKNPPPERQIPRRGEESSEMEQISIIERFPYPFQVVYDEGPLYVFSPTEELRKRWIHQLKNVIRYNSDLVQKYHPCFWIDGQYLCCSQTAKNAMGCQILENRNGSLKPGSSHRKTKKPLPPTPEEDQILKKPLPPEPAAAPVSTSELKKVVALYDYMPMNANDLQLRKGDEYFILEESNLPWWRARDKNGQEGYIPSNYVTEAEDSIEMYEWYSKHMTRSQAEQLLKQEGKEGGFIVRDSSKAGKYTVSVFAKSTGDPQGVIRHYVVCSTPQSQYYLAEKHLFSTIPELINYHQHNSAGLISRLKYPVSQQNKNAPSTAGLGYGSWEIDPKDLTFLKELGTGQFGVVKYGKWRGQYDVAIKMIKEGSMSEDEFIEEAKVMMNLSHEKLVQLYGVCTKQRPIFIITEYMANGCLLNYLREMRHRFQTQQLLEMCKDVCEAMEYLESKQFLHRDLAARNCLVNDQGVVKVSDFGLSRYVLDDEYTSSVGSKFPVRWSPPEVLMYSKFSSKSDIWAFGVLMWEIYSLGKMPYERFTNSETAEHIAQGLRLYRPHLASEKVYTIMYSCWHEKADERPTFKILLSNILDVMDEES

Chain of BTK tyrosine kinase protein (Q06187 whole entry): as above

SMILES: C=C1c2c(-c3ccc(C(=O)Nc4ccccn4)cc3)c3c(N)ncnc3n2C[C@H]1NC(=O)C#CC [Compound S17016]
IC50 [1]: 0.5 nM | IC50 [2]: 3150 nM | IC50 [3]: 3 nM | T/C (%) ([4]; 15 mg/kg): 30% | TGI (%) ([4]; 15 mg/kg): 73% | Tumor volume (mm^3) (Day 15) ([4]; 15 mg/kg, 15 mg/kg): 1034 mm^3 and 1034 ± 202 mm^3 | T/C (%) ([4]; 30 mg/kg): 19% | TGI (%) ([4]; 30 mg/kg): 83% | Tumor volume (mm^3) (Day 15) ([4]; 30 mg/kg, 30 mg/kg): 680 mm^3 and 680 ± 106 mm^3 | Tumor volume ([5]; 5 mg/kg): 912 mm^3 and 912 ± 114 mm^3 | T/C (%) ([5]; 5 mg/kg, day 17): 49.27% | TGI (%) ([5]; 5 mg/kg, day 17): 53.78% | Tumor volume ([5]; 10 mg/kg): 553 mm^3 and 553 ± 56 mm^3 | T/C (%) ([5]; 10 mg/kg, day 0): 100% | T/C (%) ([5]; 10 mg/kg, day 5): 48.31% | T/C (%) ([5]; 10 mg/kg, day 8): 39.22% | T/C (%) ([5]; 10 mg/kg, day 10): 34.25% | T/C (%) ([5]; 10 mg/kg, day 12): 30.90% | T/C (%) ([5]; 10 mg/kg, day 15): 30.56% | T/C (%) ([5]; 10 mg/kg, day 17): 29.85% | TGI (%) ([5]; 10 mg/kg, day 17): 74.35% | bioavailability (in vivo; in vivo): 24.8% | Vd (in vivo; in vivo, iv, 1 mg/kg): 0.221 L/kg | clearance (in vivo; in vivo, iv, 1 mg/kg): 3.33 mL/min/kg | half-life (in vivo; in vivo, iv, 1 mg/kg): 75.6 min | AUC (in vivo; in vivo, po, 3 mg/kg): 3860 ng·h/mL | Cmax (in vivo; in vivo, po, 3 mg/kg): 2700 ng/mL | Tmax (in vivo; in vivo, po, 3 mg/kg): 15 min | Absolute value of peak area, M0: parent compound [6]: 20285 | M0: parent compound, share of peak area [6]: (97.45%) | Absolute value of peak area, M0: parent compound [7]: 12675 | M0: parent compound, share of peak area [7]: (84.07%) | Absolute value of peak area, M0: parent compound [8]: 19033 | M0: parent compound, share of peak area [8]: (97.82%)

IC50 [2]: 14300 nM | IC50 [3]: 4 nM | oral bioavailability [9]: not ideal
SMILES: C=CC(=O)NC1Cn2c(c(-c3ccc(C(=O)Nc4ccccn4)cc3)c3c(N)ncnc32)C1=C (stereo not drawn) [Compound S20s]

SMILES: C=CC(=O)N[C@@H]1CCc2c(-c3ccc(Oc4ccccc4)cc3)c3c(N)ncnc3n2C1 [Compound S1]
IC50 [2]: 94700 nM | IC50 [3]: 6 nM | stability in metabolism [10]: unstable in metabolism | BTK inhibitory activity (BTK): high BTK inhibitory activity

SMILES: CC#CC(=O)N[C@@H]1CCc2c(-c3ccc(Oc4ccccc4)cc3)c3c(N)ncnc3n2C1 [Compound S10]
IC50 [1]: < 10 nM | IC50 [2]: 8720 nM | IC50 [3]: 30 nM | stability in metabolism [10]: unstable in metabolism | BTK inhibitory activity (BTK): high BTK inhibitory activity

IC50 [3]: 17 nM | stability in metabolism [10]: unstable in metabolism
SMILES: C=C1c2c(-c3ccc(Oc4ccccc4)cc3)c3c(N)ncnc3n2CC1NC(=O)C#CC (stereo not drawn) [Compound S19s]

IC50 [2]: 38200 nM | IC50 [3]: 23 nM
SMILES: CC#CC(=O)N1CCC[C@H]1c1nc(-c2ccc(C(=O)Nc3ccccn3)cc2)c2c(N)nccn12 [Acalabrutinib]

IC50 [2]: 12900 nM | IC50 [3]: 5 nM | bioavailability (in vivo; plasma, oral, 3 mg/kg): 4% | AUC (in vivo; plasma, po, 3 mg/kg): 57 ng·h/mL
SMILES: C=CC(=O)N1CCC[C@@H](n2nc(-c3ccc(Oc4ccccc4)cc3)c3c(N)ncnc32)C1 [Ibrutinib, reference compound]
TGI (%) ([4]; 25 mg/kg): 64% | Tumor volume (mm^3) (Day 15) ([4]; 25 mg/kg, 25 mg/kg): 1323 mm^3 and 1323 ± 195 mm^3 | Tumor volume ([5]; 25 mg/kg): 661 mm^3 and 661 ± 168 mm^3 | TGI (%) ([5]; 25 mg/kg, day 17): 68.18%

IC50 [2]: 5040 nM | IC50 [3]: 16 nM | stability in metabolism [10]: unstable in metabolism
SMILES: C=CC(=O)NC1Cn2c(c(-c3ccc(Oc4ccccc4)cc3)c3c(N)ncnc32)C1=C (stereo not drawn) [Compound S18s, reference compound]
T/C (%) ([5]; 15 mg/kg, day 0): 100% | T/C (%) ([5]; 15 mg/kg, day 6): 53.51% | T/C (%) ([5]; 15 mg/kg, day 8): 47.28% | T/C (%) ([5]; 15 mg/kg, day 11): 37.73% | T/C (%) ([5]; 15 mg/kg, day 13): 34.97%
